# Data taken from PubChem BioAssay AID330 (DTP/NCI, 2004).
# Where “and” joins values, the source holds several entries; their conditions need not be identical. Identical values can stand only once. Inconclusive results and toxic doses are left out.
# Test system: P388 leukemia ip, CD2F1 mice, survival T/C
# Test: NCI In Vivo Anticancer Drug Screen. Data for tumor model P388 Leukemia (intraperitoneal) in CD2F1 (CDF1) mice
# Conditions: endpoint: median survival time, higher = longer survival
# Summary of the method: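 Mice carrying the transplanted tumor received test compound or vehicle. Survival was recorded in each group, and the value is the treated-group measurement divided by that of the vehicle-treated control group.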
# [1] = dose: 6.25 mg/kg/injection, schedule: Q01DX009 (ip), vehicle: saline with Tween-80
# [2] = dose: 60.0 mg/kg/injection, schedule: Q01DX005 (ip), vehicle: saline with Tween-80
# [3] = dose: 120.0 mg/kg/injection, schedule: Q01DX005 (ip), vehicle: saline with Tween-80
# [4] = dose: 240.0 mg/kg/injection, schedule: Q01DX005 (ip), vehicle: saline with Tween-80
smiles,measurement,setting,value
Cc1cc(Nc2ccc(N(CCCl)CCCl)cc2)cc(C)c1O,T/C,[1],151 % of control
same,T/C,"dose: 12.5 mg/kg/injection, schedule: Q01DX009 (ip), vehicle: saline with Tween-80",154 % of control and 169 % of control
same,T/C,"dose: 25.0 mg/kg/injection, schedule: Q01DX009 (ip), vehicle: saline with Tween-80",169 % of control and 175 % of control
Cc1cccc(CO)c1-c1c(C)cccc1CO,T/C,"dose: 50.0 mg/kg/injection, schedule: Q01DX005 (ip), vehicle: Klucel (hydroxypropylcellulose) (HPC)",101 % of control
same,T/C,"dose: 100.0 mg/kg/injection, schedule: Q01DX005 (ip), vehicle: Klucel (hydroxypropylcellulose) (HPC)",108 % of control
same,T/C,"dose: 200.0 mg/kg/injection, schedule: Q01DX005 (ip), vehicle: Klucel (hydroxypropylcellulose) (HPC)",100 % of control
COc1cc2c(cc1OC)C1C(C)c3ccc(OC)c(OC)c3CN1CC2 (stereo unspecified),T/C,"dose: 12.5 mg/kg/injection, schedule: Q01DX009 (ip), vehicle: saline",88 % of control
same,T/C,"dose: 25.0 mg/kg/injection, schedule: Q01DX009 (ip), vehicle: saline",104 % of control
same,T/C,"dose: 50.0 mg/kg/injection, schedule: Q01DX009 (ip), vehicle: saline",107 % of control
same,T/C,"dose: 50.0 mg/kg/injection, schedule: Q04DX003 (ip), vehicle: distilled water + Tween-80",93 % of control
same,T/C,"dose: 100.0 mg/kg/injection, schedule: Q04DX003 (ip), vehicle: distilled water + Tween-80",87 % of control
same,T/C,"dose: 200.0 mg/kg/injection, schedule: Q04DX003 (ip), vehicle: distilled water + Tween-80",87 % of control
same,T/C,"dose: 400.0 mg/kg/injection, schedule: Q01DX009 (ip), vehicle: saline",94 % of control
same,T/C,"dose: 400.0 mg/kg/injection, schedule: Q04DX003 (ip), vehicle: distilled water + Tween-80",91 % of control
COCn1ccnc1C(=O)c1ccco1,T/C,"dose: 50.0 mg/kg/injection, schedule: Q01DX009 (ip), vehicle: saline with Tween-80",103 % of control
same,T/C,"dose: 100.0 mg/kg/injection, schedule: Q01DX009 (ip), vehicle: saline with Tween-80",111 % of control
same,T/C,"dose: 200.0 mg/kg/injection, schedule: Q01DX009 (ip), vehicle: saline with Tween-80",94 % of control
Cc1cccc(OC(=O)Nc2ccc(C(=O)O)c(O)c2)c1,T/C,[2],106 % of control
same,T/C,[3],90 % of control
CN1CCc2c1c1c(c3c4ccccc4n(C)c23)N(C)CC1,T/C,"dose: 6.25 mg/kg/injection, schedule: Q01DX005 (ip), vehicle: Klucel (hydroxypropylcellulose) (HPC)",103 % of control
same,T/C,"dose: 12.5 mg/kg/injection, schedule: Q01DX005 (ip), vehicle: Klucel (hydroxypropylcellulose) (HPC)",104 % of control
same,T/C,"dose: 25.0 mg/kg/injection, schedule: Q01DX005 (ip), vehicle: Klucel (hydroxypropylcellulose) (HPC)",107 % of control
O=C(Nc1ccc(S(=O)(=O)Nc2nccs2)cc1)c1cccnc1Nc1cccc(Cl)c1,T/C,[2],111 % of control
same,T/C,[3],113 % of control
same,T/C,[4],106 % of control
O=c1cc(-c2ccc(O)cc2)oc2cc(O)c(C3OC(CO)C(O)C(O)C3OC3OC(CO)C(O)C(O)C3O)c(O)c12 (stereo unspecified),T/C,"dose: 25.0 mg/kg/injection, schedule: Q01DX009 (ip), vehicle: Klucel (hydroxypropylcellulose) (HPC)",102 % of control
same,T/C,"dose: 50.0 mg/kg/injection, schedule: Q01DX009 (ip), vehicle: Klucel (hydroxypropylcellulose) (HPC)",107 % of control
same,T/C,"dose: 100.0 mg/kg/injection, schedule: Q01DX009 (ip), vehicle: Klucel (hydroxypropylcellulose) (HPC)",105 % of control
same,T/C,"dose: 200.0 mg/kg/injection, schedule: Q01DX009 (ip), vehicle: Klucel (hydroxypropylcellulose) (HPC)",99 % of control
CC1OC(OCC2OC(OCCc3ccc(O)c(O)c3)C(O)C(OC3OC(C)C(O)C(O)C3O)C2O)C(O)C(O)C1O (stereo unspecified) (tested in a mixture with another compound),T/C,"dose: 9.5 mg/kg/injection, schedule: Q01DX009 (ip), vehicle: saline",105 % of control
same,T/C,"dose: 19.0 mg/kg/injection, schedule: Q01DX009 (ip), vehicle: saline",103 % of control
same,T/C,"dose: 38.0 mg/kg/injection, schedule: Q01DX009 (ip), vehicle: saline",112 % of control
same,T/C,"dose: 76.0 mg/kg/injection, schedule: Q01DX009 (ip), vehicle: saline",103 % of control
CCC(=N/NC(=S)NCCN1CCCCC1)/C(CC)=N\NC(=S)NCCN1CCCCC1,T/C,"dose: 3.13 mg/kg/injection, schedule: Q01DX009 (ip), vehicle: saline with Tween-80",100 % of control
same,T/C,[1],103 % of control
C1CSCN1,T/C,"dose: 50.0 mg/kg/injection, schedule: Q01DX005 (ip), vehicle: saline",107 % of control
same,T/C,"dose: 100.0 mg/kg/injection, schedule: Q01DX005 (ip), vehicle: saline",100 % of control
same,T/C,"dose: 200.0 mg/kg/injection, schedule: Q01DX005 (ip), vehicle: saline",115 % of control
O=C(c1ccccc1)N1OCCCc2ccccc21,T/C,[2],104 % of control
same,T/C,[3],96 % of control
same,T/C,[4],91 % of control
